Measured values taken from patent publication US20250241927A1, “MEDICAMENT COMPRISING A P2X4 RECEPTOR ANTAGONIST FOR PREVENTING OR TREATING NOCICEPTIVE PAIN AND/OR VISCERAL PAIN” (NIPPON CHEMIPHAR CO., LTD., priority 2021, published 2025).
“Also recorded” adds a separate entry of the source. Read-outs that look alike come from different tables or passages of the source.

Legend:
Assay type in all cases: in vivo, rat
[1] = tested on: visceral pain (visceral hypersensitivity) in rats induced by intrarectal injection of DNBS; assay: Acute administration test: abdominal withdrawal reflex (AWR) to colorectal distension in DNBS-treated rats
Protocol: (§1) Male Sprague-Dawley rats (Envigo, Varese, Italy) weighing approximately 300 g at the beginning of a test were used. The animals were housed in Centro Stabulazione Animali da Laboratorio (CeSAL, University of Florence) and used at least one week after their arrival. Four rats were raised per cage (size 26×41 cm). The animals were fed with standard laboratory diet and tap water ad libitum and kept at 23±1° C. with a 12-hour light/dark cycle (light at 7:00 in the morning). All animal manipulations were carried out according to the European Community Guidelines for Animal Care (DL116/92) and the application of European Communities Council Directive of Nov. 24, 1986 (86/609/EEC). The ethical policy of the University of Florence complies with the Guide for the Care and Use of Laboratory Animals of the US National Institutes of Health (NIH Publication No. 85-23, revised 1996, University of Florence assurance number: A5278-01). Formal approval to conduct the experiments described was obtained from the Animal Subjects Review Board of the University of Florence. Experiments involving animals have been reported according to ARRIVE guidelines (McGrath and Lilley, Br. J. Pharmacol. 2015; 172:3189-3193). All efforts were made to minimize suffering of the animals and to reduce the number of animals used.
Colitis was induced by intrarectal administration of 15 mg of 2,4-dinitrobenzenesulfonic acid (DNBS; Sigma-Aldrich S.r.l., Milano, Italia) in 0.25 ml of 50% ethanol via a polyethylene PE-60 catheter inserted approximately 8 cm into the anus, while the rat was under short-term anesthesia by isoflurane (2%). […]
Compound A and Compound B were dissolved in water and orally administered 30 minutes before the beginning of a test, and an acute effect was evaluated.
(§2) Visceral sensitivity to colorectal distension (CRD) was evaluated by measurement of abdominal withdrawal reflex (AWR) in conscious animals using semiquantitative scores (Lucarini et al., Cells. 2020; 9 (8): E1772). […]
Visceral sensitivity was evaluated by measuring abdominal withdrawal reflex (AWR) to colorectal distension (0.5 to 3 mL).

[2] = tested on: visceral pain (visceral hypersensitivity) in rats induced by intrarectal injection of DNBS; conditions: prevention test: daily from Day 1 to Day 6, evaluated 6 days after colitis induction, 24 hours after last treatment
Protocol: as §1, with “Experiments involving animals have been reported according to ARRIVE guidelines (McGrath and Lilley, Br. J. Pharmacol. 2015; 172:3189-3193). All efforts were made to minimize suffering of the animals and to reduce the number of animals used.” left out
as §2
Visceral sensitivity was evaluated by measuring AWR to colorectal distension (0.5 to 3 mL). […]

[3] = tested on: colonic damage in rats induced by the intrarectal injection of DNBS; assay: Prevention test: macroscopic colonic damage score in DNBS-treated rats; conditions: prevention test: daily from Day 1 to Day 6
Protocol: (§3) Colitis was induced by intrarectal administration of 15 mg of 2,4-dinitrobenzenesulfonic acid (DNBS; Sigma-Aldrich S.r.l., Milano, Italia) in 0.25 ml of 50% ethanol via a polyethylene PE-60 catheter inserted approximately 8 cm into the anus, while the rat was under short-term anesthesia by isoflurane (2%). To control rats, 0.25 ml of a vehicle was administered.
(§4) In addition, in order to evaluate an effect of repeated administration of a P2X4 antagonist, two different tests (that is, prevention test and intervention test) were adopted. […]
(§5) The macroscopic criteria were as follows: • presence of adhesion between colon and another intraperitoneal organ (0-2: no adhesions: 0 points, adhesion with only one adjacent organ: 1 point, and adhesions with a plurality of adjacent organs: 2 points); • consistency of colon fecal matter (indirect marker of diarrhea; 0-2: formed stool: 0 points, loose stool: 1 point, and liquid stool: 2 points); • thickening of colonic wall (mm: 1 point was scored for 1 mm); and • presence and spread of hyperemia and macroscopic mucosal damage (0-5: none: 0 points, hyperemic: 1 point, ulcers without hyperemia or thickening of intestinal wall: 2 points, ulcer with inflammation at one site: 3 points, ulcers with inflammation at two or more sites: 4 points, and wide site of damage exceeding 1 cm along length of colon: 5 points). […]

[4] = Prevention test: body weight of DNBS-treated rats; conditions: Day 1 vs Day 6, DNBS weight loss approximately 10%, not significant
Protocol: (§6) In addition, in order to evaluate an effect of repeated administration of a P2X4 antagonist, two different tests (that is, prevention test and intervention test) were adopted. In the prevention test, the test medicament was administered daily to the rats immediately after the delivery of DNBS (Day 1), and the treatment was continued until the rats were sacrificed on the 6th day (Day 6). In the intervention test, the daily treatment with the medicament began 2 days after the delivery of DNBS (Day 3), and the rats were sacrificed on the 8th day (Day 8).
Visceral sensitivity was evaluated by measuring AWR to colorectal distension (0.5 to 3 mL). In the prevention test, the test medicament was administered daily to the rats immediately after the administration of DNBS, and the treatment was continued until the rats were sacrificed on the 6th day (Day 6). The evaluation was performed 6 days after the induction of colitis and 24 hours after the last treatment with Compound A (A) and Compound B (B). After the test, the animals were sacrificed, and macroscopic damage scores were assigned to their colons (FIG. 2C and FIG. 2D). In FIG. 2E and FIG. 2F, weights (g) of the animals before the DNBS injection (Day 1) and at the end of the preventive treatment with Compound A and Compound B (Day 6) are shown, respectively.

[5] = tested on: visceral pain (visceral hypersensitivity) in rats induced by intrarectal injection of DNBS; assay: Intervention test (repeated administration): AWR to colorectal distension in DNBS-treated rats; conditions: for effect on visceral pain compared with the treatment with dexamethasone: intervention test; for onset of visceral pain (visceral hypersensitivity): intervention test: daily from Day 3 to Day 8, evaluated Day 8, 24 hours after last treatment
Protocol: as §1, §3, §6
Visceral sensitivity to colorectal distension (CRD) was evaluated by measurement of abdominal withdrawal reflex (AWR) in conscious animals using semiquantitative scores (Lucarini et al., Cells. 2020; 9 (8): E1772). Briefly, the rats were anesthetized with isoflurane. A lubricated latex balloon (length: 4.5 cm) that is assembled into an embolectomy catheter by being attached to a polyethylene tube to be connected to a syringe filled with water was inserted into the rectum and the descending colon of adult rats through the anus. […]

[6] = tested on: colonic damage in rats induced by the intrarectal injection of DNBS; assay: Intervention test: macroscopic colonic damage score in DNBS-treated rats; conditions: intervention test: daily from Day 3 to Day 8
Protocol: as §3, §4, §5

[7] = Intervention test: body weight of DNBS-treated rats; conditions: Day 1 vs Day 8, DNBS weight loss approximately 10%, not significant
Protocol: as §6
In the test, the administration of the compounds began 2 days after the delivery of DNBS (Day 3) and was continued until the rats were sacrificed on the 8th day (Day 8). Evaluation was performed 8 days after the induction of colitis (Day 8) and 24 hours after the last treatment with Compound A (A) and Compound B (B). After the test, the animals were sacrificed, and macroscopic damage scores were assigned to their colons (FIG. 3C and FIG. 3D). In FIG. 3E and FIG. 3F, weights (g) of the animals before the DNBS injection (Day 1) and at the end of the intervention treatment with Compound A and Compound B (Day 8) are reported, respectively.

[8] = tested on: occludin expression in colonic mucosa; assay: Occludin expression in colonic tissue of DNBS-induced rats by western blotting; conditions: 10 mg/kg

Structure (SMILES)	visceral pain threshold ([1]; acute administration, higher doses, DNBS animals)	AWR to colorectal distension ([1]; acute oral administration 10 to 30 mg/kg, 30 minutes before test, seven days after DNBS)	onset of visceral pain (visceral hypersensitivity) [2]	colonic damage (macroscopic damage score) [3]	weight loss caused by DNBS [4]	effect on visceral pain compared with the treatment with dexamethasone [5]	onset of visceral pain (visceral hypersensitivity) [5]	colonic damage (macroscopic damage score) [6]	weight loss caused by DNBS [7]	occludin expression in inflamed tissues compared to the DNBS-induced rats ([8]; listed as Compound A, sodium salt)	AWR to colorectal distension ([1]; acute oral administration 10 and 30 mg/kg, colorectal distension 1 to 2 mL)	occludin expression in inflamed tissues compared to the DNBS-induced rats ([8]; listed as Compound B)
O=C1CC(=O)N(c2cccc(-c3noc(=S)[nH]3)c2)c2ccc3ccccc3c2N1.[Na] [Compound A17, 5-[3-(5-thioxo-4H-[1,2,4]oxadiazol-3-yl)phenyl]-1H-naphtho[1,2-b][1,4]diazepine-2,4(3H,5H)-dione sodium salt]	returned to a control value	significantly and dose-dependently decreased	counteracted	counteracted	did not affect	more effective	significantly reduces	significant reduction	does not affect	increased; also recorded: counteract		
O=C1CC(=O)N(c2ccc(NC(=O)c3ccccc3I)cc2)c2ccc3ccccc3c2N1 [Compound B48, 5-[4-(2-iodobenzoylamino)phenyl]-1H-naphtho[1,2-b][1,4]diazepine-2,4(3H,5H)-dione]			counteracted	counteracted	did not affect	more effective	significantly reduces	significant reduction	does not affect		significantly reduced	increased; also recorded: counteract
